Values after ≈ are worked out from the molar mass of the structure shown.
Legend:
Format in all cases: functional
Conditions in all cases: time 16-24 hrs
Staphylococcus aureus [1] = test: Antibacterial activity against methicillin-susceptible Staphylococcus aureus incubated for 16 to 24 hrs by CLSI based broth microdilution method
Staphylococcus aureus [2] = test: Antibacterial activity against vancomycin-intermediate Staphylococcus aureus incubated for 16 to 24 hrs by CLSI based broth microdilution method
Enterococcus faecium [3] = test: Antibacterial activity against vancomycin-resistant Enterococcus faecium harboring VanA phenotype incubated for 16 to 24 hrs by CLSI based broth microdilution method
Enterococcus faecium [4] = test: Antibacterial activity against vancomycin-resistant Enterococcus faecium harboring VanM phenotype incubated for 16 to 24 hrs by CLSI based broth microdilution method
Enterococcus faecium [5] = test: Antibacterial activity against vancomycin-resistant Enterococcus faecium harboring VanB phenotype incubated for 16 to 24 hrs by CLSI based broth microdilution method
Escherichia coli = test: Antibacterial activity against Escherichia coli AB1157 incubated for 16 to 24 hrs by CLSI based broth microdilution method
Acinetobacter baumannii = test: Antibacterial activity against Carbapenem-resistant Acinetobacter baumannii clinical isolate incubated for 16 to 24 hrs by CLSI based broth microdilution method
Klebsiella pneumoniae = test: Antibacterial activity against Klebsiella pneumoniae clinical isolate incubated for 16 to 24 hrs by CLSI based broth microdilution method
Pseudomonas aeruginosa = test: Antibacterial activity against Pseudomonas aeruginosa PAO1 incubated for 16 to 24 hrs by CLSI based broth microdilution method

Structure (SMILES)	MIC (Staphylococcus aureus [1])	MIC (Staphylococcus aureus [2])	MIC (Enterococcus faecium [3])	MIC (Enterococcus faecium [4])	MIC (Enterococcus faecium [5])	MIC (Escherichia coli)	MIC (Acinetobacter baumannii)	MIC (Klebsiella pneumoniae)	MIC (Pseudomonas aeruginosa)
CN[C@H](CC(C)C)C(=O)N[C@H]1C(=O)N[C@@H](CC(N)=O)C(=O)N[C@H]2C(=O)N[C@H]3C(=O)N[C@H](C(=O)N[C@H](C(=O)N[C@H](CCCNC(=N)N)C(N)=O)c4cc(O)cc(O)c4-c4cc3ccc4O)[C@H](O)c3ccc(c(Cl)c3)Oc3cc2cc(c3O[C@@H]2O[C@H](CO)[C@@H](O)[C@H](O)[C@H]2O[C@H]2C[C@](C)(N)[C@H](O)[C@H](C)O2)Oc2ccc(cc2Cl)[C@H]1O	0.5 µg/mL (≈ 0.312 µM)	1 µg/mL (≈ 0.623 µM)	8 µg/mL (≈ 4.99 µM)	32 µg/mL (≈ 19.9 µM)	16 µg/mL (≈ 9.97 µM)	8 µg/mL (≈ 4.99 µM)	32 µg/mL (≈ 19.9 µM)	128 µg/mL (≈ 79.8 µM)	> 128 µg/mL
CC(C)C[C@@H](N)C(=O)N[C@H]1C(=O)N[C@@H](CC(N)=O)C(=O)N[C@H]2C(=O)N[C@H]3C(=O)N[C@H](C(=O)N[C@H](C(=O)NCCOCCOCCN)c4cc(O)cc(O)c4-c4cc3ccc4O)[C@H](O)c3ccc(c(Cl)c3)Oc3cc2cc(c3O[C@@H]2O[C@H](CO)[C@@H](O)[C@H](O)[C@H]2O[C@H]2C[C@](C)(N)[C@H](O)[C@H](C)O2)Oc2ccc(cc2Cl)[C@H]1O	0.5 µg/mL (≈ 0.319 µM)	4 µg/mL (≈ 2.56 µM)	64 µg/mL (≈ 40.9 µM)	64 µg/mL (≈ 40.9 µM)	64 µg/mL (≈ 40.9 µM)	64 µg/mL (≈ 40.9 µM)	> 128 µg/mL	> 128 µg/mL	> 128 µg/mL
CC(C)C[C@@H](N)C(=O)N[C@H]1C(=O)N[C@@H](CC(N)=O)C(=O)N[C@H]2C(=O)N[C@H]3C(=O)N[C@H](C(=O)N[C@H](C(=O)N[C@H](CCCNC(=N)N)C(N)=O)c4cc(O)cc(O)c4-c4cc3ccc4O)[C@H](O)c3ccc(c(Cl)c3)Oc3cc2cc(c3O[C@@H]2O[C@H](CO)[C@@H](O)[C@H](O)[C@H]2O[C@H]2C[C@](C)(N)[C@H](O)[C@H](C)O2)Oc2ccc(cc2Cl)[C@H]1O	0.5 µg/mL (≈ 0.314 µM)	16 µg/mL (≈ 10.1 µM)	32 µg/mL (≈ 20.1 µM)	64 µg/mL (≈ 40.2 µM)	32 µg/mL (≈ 20.1 µM)	16 µg/mL (≈ 10.1 µM)	64 µg/mL (≈ 40.2 µM)	> 128 µg/mL	128 µg/mL (≈ 80.5 µM)
CC(C)C[C@@H](N)C(=O)N[C@H]1C(=O)N[C@@H](CC(N)=O)C(=O)N[C@H]2C(=O)N[C@H]3C(=O)N[C@H](C(=O)N[C@H](C(=O)NCCOCCOCCNC(=N)N)c4cc(O)cc(O)c4-c4cc3ccc4O)[C@H](O)c3ccc(c(Cl)c3)Oc3cc2cc(c3O[C@@H]2O[C@H](CO)[C@@H](O)[C@H](O)[C@H]2O[C@H]2C[C@](C)(N)[C@H](O)[C@H](C)O2)Oc2ccc(cc2Cl)[C@H]1O	1 µg/mL (≈ 0.622 µM)	4 µg/mL (≈ 2.49 µM)	32 µg/mL (≈ 19.9 µM)	64 µg/mL (≈ 39.8 µM)	64 µg/mL (≈ 39.8 µM)	16 µg/mL (≈ 9.95 µM)	> 128 µg/mL	> 128 µg/mL	> 128 µg/mL
CC(C)C[C@@H](N)C(=O)N[C@H]1C(=O)N[C@@H](CC(N)=O)C(=O)N[C@H]2C(=O)N[C@H]3C(=O)N[C@H](C(=O)N[C@H](C(=O)NCc4ccc(-c5cccc(CN)c5)cc4)c4cc(O)cc(O)c4-c4cc3ccc4O)[C@H](O)c3ccc(c(Cl)c3)Oc3cc2cc(c3O[C@@H]2O[C@H](CO)[C@@H](O)[C@H](O)[C@H]2O[C@H]2C[C@](C)(N)[C@H](O)[C@H](C)O2)Oc2ccc(cc2Cl)[C@H]1O	0.125 µg/mL (≈ 0.0767 µM)	0.5 µg/mL (≈ 0.307 µM)	8 µg/mL (≈ 4.91 µM)	2 µg/mL (≈ 1.23 µM)	8 µg/mL (≈ 4.91 µM)	16 µg/mL (≈ 9.82 µM)	> 128 µg/mL	> 128 µg/mL	128 µg/mL (≈ 78.6 µM)
CC(C)C[C@@H](N)C(=O)N[C@H]1C(=O)N[C@@H](CC(N)=O)C(=O)N[C@H]2C(=O)N[C@H]3C(=O)N[C@H](C(=O)N[C@H](C(=O)NCCCCCCCCNC(=N)N)c4cc(O)cc(O)c4-c4cc3ccc4O)[C@H](O)c3ccc(c(Cl)c3)Oc3cc2cc(c3O[C@@H]2O[C@H](CO)[C@@H](O)[C@H](O)[C@H]2O[C@H]2C[C@](C)(N)[C@H](O)[C@H](C)O2)Oc2ccc(cc2Cl)[C@H]1O	0.5 µg/mL (≈ 0.312 µM)	2 µg/mL (≈ 1.25 µM)	16 µg/mL (≈ 9.98 µM)	32 µg/mL (≈ 20 µM)	8 µg/mL (≈ 4.99 µM)	8 µg/mL (≈ 4.99 µM)	64 µg/mL (≈ 39.9 µM)	> 128 µg/mL	128 µg/mL (≈ 79.8 µM)
CC(C)C[C@@H](N)C(=O)N[C@H]1C(=O)N[C@@H](CC(N)=O)C(=O)N[C@H]2C(=O)N[C@H]3C(=O)N[C@H](C(=O)N[C@H](C(=O)NCCc4ccc(-c5ccc(CN)cc5)cc4)c4cc(O)cc(O)c4-c4cc3ccc4O)[C@H](O)c3ccc(c(Cl)c3)Oc3cc2cc(c3O[C@@H]2O[C@H](CO)[C@@H](O)[C@H](O)[C@H]2O[C@H]2C[C@](C)(N)[C@H](O)[C@H](C)O2)Oc2ccc(cc2Cl)[C@H]1O	0.25 µg/mL (≈ 0.152 µM)	1 µg/mL (≈ 0.608 µM)	4 µg/mL (≈ 2.43 µM)	8 µg/mL (≈ 4.87 µM)	8 µg/mL (≈ 4.87 µM)	8 µg/mL (≈ 4.87 µM)	128 µg/mL (≈ 77.9 µM)	> 128 µg/mL	> 128 µg/mL
CC(C)C[C@@H](N)C(=O)N[C@H]1C(=O)N[C@@H](CC(N)=O)C(=O)N[C@H]2C(=O)N[C@H]3C(=O)N[C@H](C(=O)N[C@H](C(=O)NCc4ccc(-c5ccc(CCN)cc5)cc4)c4cc(O)cc(O)c4-c4cc3ccc4O)[C@H](O)c3ccc(c(Cl)c3)Oc3cc2cc(c3O[C@@H]2O[C@H](CO)[C@@H](O)[C@H](O)[C@H]2O[C@H]2C[C@](C)(N)[C@H](O)[C@H](C)O2)Oc2ccc(cc2Cl)[C@H]1O	0.25 µg/mL (≈ 0.152 µM)	1 µg/mL (≈ 0.608 µM)	4 µg/mL (≈ 2.43 µM)	16 µg/mL (≈ 9.74 µM)	8 µg/mL (≈ 4.87 µM)	16 µg/mL (≈ 9.74 µM)	> 128 µg/mL	> 128 µg/mL	> 128 µg/mL
CN[C@H](CC(C)C)C(=O)N[C@H]1C(=O)N[C@@H](CC(N)=O)C(=O)N[C@H]2C(=O)N[C@H]3C(=O)N[C@H](C(=O)N[C@H](C(=O)O)c4cc(O)c(CNCCCCCCCCNC(=N)N)c(O)c4-c4cc3ccc4O)[C@H](O)c3ccc(c(Cl)c3)Oc3cc2cc(c3O[C@@H]2O[C@H](CO)[C@@H](O)[C@H](O)[C@H]2O[C@H]2C[C@](C)(N)[C@H](O)[C@H](C)O2)Oc2ccc(cc2Cl)[C@H]1O	1 µg/mL (≈ 0.607 µM)	2 µg/mL (≈ 1.21 µM)	64 µg/mL (≈ 38.8 µM)	32 µg/mL (≈ 19.4 µM)	128 µg/mL (≈ 77.7 µM)	32 µg/mL (≈ 19.4 µM)	128 µg/mL (≈ 77.7 µM)	> 128 µg/mL	128 µg/mL (≈ 77.7 µM)
CC(C)C[C@@H](N)C(=O)N[C@H]1C(=O)N[C@@H](CC(N)=O)C(=O)N[C@H]2C(=O)N[C@H]3C(=O)N[C@H](C(=O)N[C@H](C(=O)NCCCCCCNC(=N)N)c4cc(O)cc(O)c4-c4cc3ccc4O)[C@H](O)c3ccc(c(Cl)c3)Oc3cc2cc(c3O[C@@H]2O[C@H](CO)[C@@H](O)[C@H](O)[C@H]2O[C@H]2C[C@](C)(N)[C@H](O)[C@H](C)O2)Oc2ccc(cc2Cl)[C@H]1O	0.5 µg/mL (≈ 0.317 µM)	2 µg/mL (≈ 1.27 µM)	32 µg/mL (≈ 20.3 µM)	32 µg/mL (≈ 20.3 µM)	16 µg/mL (≈ 10.2 µM)	8 µg/mL (≈ 5.08 µM)	128 µg/mL (≈ 81.2 µM)	> 128 µg/mL	> 128 µg/mL
CC(C)C[C@@H](N)C(=O)N[C@H]1C(=O)N[C@@H](CC(N)=O)C(=O)N[C@H]2C(=O)N[C@H]3C(=O)N[C@H](C(=O)N[C@H](C(=O)NCc4ccc(-c5ccc(CN)cc5)cc4)c4cc(O)cc(O)c4-c4cc3ccc4O)[C@H](O)c3ccc(c(Cl)c3)Oc3cc2cc(c3O[C@@H]2O[C@H](CO)[C@@H](O)[C@H](O)[C@H]2O[C@H]2C[C@](C)(N)[C@H](O)[C@H](C)O2)Oc2ccc(cc2Cl)[C@H]1O	≤ 0.063 µg/mL	1 µg/mL (≈ 0.614 µM)	8 µg/mL (≈ 4.91 µM)	8 µg/mL (≈ 4.91 µM)	8 µg/mL (≈ 4.91 µM)	16 µg/mL (≈ 9.82 µM)	128 µg/mL (≈ 78.6 µM)	> 128 µg/mL	> 128 µg/mL
CC(C)C[C@@H](N)C(=O)N[C@H]1C(=O)N[C@@H](CC(N)=O)C(=O)N[C@H]2C(=O)N[C@H]3C(=O)N[C@H](C(=O)N[C@H](C(=O)NCCCCCCN)c4cc(O)cc(O)c4-c4cc3ccc4O)[C@H](O)c3ccc(c(Cl)c3)Oc3cc2cc(c3O[C@@H]2O[C@H](CO)[C@@H](O)[C@H](O)[C@H]2O[C@H]2C[C@](C)(N)[C@H](O)[C@H](C)O2)Oc2ccc(cc2Cl)[C@H]1O	2 µg/mL (≈ 1.3 µM)	8 µg/mL (≈ 5.22 µM)	64 µg/mL (≈ 41.7 µM)	64 µg/mL (≈ 41.7 µM)	64 µg/mL (≈ 41.7 µM)	32 µg/mL (≈ 20.9 µM)	> 128 µg/mL	> 128 µg/mL	128 µg/mL (≈ 83.5 µM)

From ChEMBL document CHEMBL6127119 (J Med Chem, 2024)
